Measured values reported in US20240116985A1, “STAPLED PEPTIDES AND METHODS THEREOF” (priority 2020, published 2024).
pIC50: −log10 of the molar value. In brackets after ≈: the same amount, converted by molar mass. Where two headings read alike, the source gives them in different places.

Columns and labels:
[1] = Solubility in PBS; format: physicochemical
Method in brief: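 PBS sample ultracentrifuged; supernatant run on HPLC vs. 50 μM peptide in DMSO standard. Solubility = (PBS peak area / DMSO peak area) × 50 uM.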

[2] = target: T1, full-length beta-Catenin (Uniprot ID P35222) (Homo sapiens, UniProt P35222); test: Fluorescence polarization IC50 (beta-catenin / 5FAM-TCF4 10-53 competition); format: binding
T1 construct: 10 nM full-length beta-Catenin (Uniprot ID P35222)
T1 sequence (P35222 1-781): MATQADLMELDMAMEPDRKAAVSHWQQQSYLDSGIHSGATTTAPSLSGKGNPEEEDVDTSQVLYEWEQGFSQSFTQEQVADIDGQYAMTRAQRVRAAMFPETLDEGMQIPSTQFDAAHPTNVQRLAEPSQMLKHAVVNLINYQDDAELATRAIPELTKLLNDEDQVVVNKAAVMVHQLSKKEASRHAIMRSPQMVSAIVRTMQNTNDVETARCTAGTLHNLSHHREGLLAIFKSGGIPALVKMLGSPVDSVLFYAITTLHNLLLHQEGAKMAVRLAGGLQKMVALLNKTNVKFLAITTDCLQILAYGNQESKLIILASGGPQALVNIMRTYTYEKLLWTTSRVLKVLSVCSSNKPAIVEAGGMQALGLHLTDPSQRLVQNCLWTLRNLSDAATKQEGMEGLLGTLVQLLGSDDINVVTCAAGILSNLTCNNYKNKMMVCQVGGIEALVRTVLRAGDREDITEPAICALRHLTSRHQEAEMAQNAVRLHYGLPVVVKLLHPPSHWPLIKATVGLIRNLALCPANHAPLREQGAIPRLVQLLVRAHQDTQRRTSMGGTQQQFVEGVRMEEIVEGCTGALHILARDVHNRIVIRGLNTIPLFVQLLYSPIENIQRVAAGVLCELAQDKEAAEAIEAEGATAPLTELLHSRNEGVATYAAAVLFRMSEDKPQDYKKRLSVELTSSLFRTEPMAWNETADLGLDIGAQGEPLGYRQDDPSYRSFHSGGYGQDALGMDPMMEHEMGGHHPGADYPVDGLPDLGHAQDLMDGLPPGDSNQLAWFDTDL

[3] = CHI Log D procedure; format: physicochemical; conditions: for CHI Log D: pH 7.4
[4] = fluorescence polarization, read-out: beta-Catenin FP IC50

Solubility [1] [µM]	pIC50 [2, 4]	chromatographic logD ([3]; pH 7.4, CHI Log D)	pIC50 ([2]; read-out: FP EC50)	CHI Log D [3]	Compound
10 (≈ 20.2 µg/mL)	7.27	3.11	–	–	CC(=O)N1CCC[C@]12CC=CCCCC1(CCCC=CCCCCCC[C@@](C)(C(=O)N[C@@H](Cc3ccsc3)C(=O)N[C@@H](Cc3csc4ccccc34)C(=O)N[C@@H](Cc3c[nH]cn3)C(N)=O)NC(=O)[C@H](CC(N)=O)NC(=O)[C@H](Cc3ccccc3)NC(=O)[C@H](C)NC(=O)[C@H](C)NC(=O)[C@H](CN(CC(=O)O)CC(F)(F)F)NC(=O)[C@H](CC(=O)O)NC1=O)NC(=O)[C@H](CC1CCCCC1)NC(=O)[C@H](CC(=O)O)NC2=O (stereo partly drawn) [I-709, Ac-PL3-Asp-Cha-B5-Asp-TfeGA-Ala-Ala-Phe-Asn-S8-3Thi-BztA-His-NH2]
48 (≈ 92.1 µg/mL)	7.06	–	7.06	2.132	CC[C@H](C)[C@@H]1NC(=O)[C@H](CC(=O)O)NC(=O)[C@]2(CC=CCCCC3(CCCC=CCCCCCC[C@@](C)(C(=O)N[C@@H](Cc4ccccc4)C(=O)N[C@@H](Cc4csc5ccccc45)C(=O)N[C@@H](CCC(N)=O)C(N)=O)NC(=O)[C@H](CCC(N)=O)NC(=O)[C@H](Cc4ccccc4)NC(=O)[C@H](C)NC(=O)[C@H](C)NC(=O)[C@H](CCC(=O)O)NC(=O)[C@H](CC(=O)O)NC3=O)NC1=O)CCCN2S(C)(=O)=O (stereo partly drawn) [I-711, MeSO2-PL3-Asp-Ile-B5-Asp-Glu-Ala-Ala-Phe-Gln-S8-Phe-BztA-Gln-NH2]
43 (≈ 74.9 µg/mL)	6.88	–	6.88	2.698	CC[C@H](C)[C@@H]1NC(=O)[C@H](CC(=O)O)NC(=O)[C@]2(CC=CCCCC3(CCCC=CCCCCCC[C@@](C)(C(=O)N[C@@H](Cc4ccccc4)C(=O)N[C@@H](Cc4csc5ccccc45)C(N)=O)NC(=O)[C@H](CC(N)=O)NC(=O)[C@H](Cc4ccccc4)NC(=O)[C@H](C)NC(=O)[C@H](C)NC(=O)[C@H](CCC(=O)O)NC(=O)[C@H](CC(=O)O)NC3=O)NC1=O)CCCN2C(C)=O (stereo partly drawn) [I-714, Ac-PL3-Asp-Ile-B5-Asp-Glu-Ala-Ala-Phe-Asn-S8-Phe-BztA-NH2]
35 (≈ 61.1 µg/mL)	7.41	–	7.41	2.694	CC(=O)N1CCC[C@]12CC=CCCCC1(CCCC=CCCCCCC[C@@](C)(C(=O)N[C@@H](Cc3ccsc3)C(=O)N[C@@H](Cc3csc4ccccc34)C(N)=O)NC(=O)[C@H](CC(N)=O)NC(=O)[C@H](Cc3ccccc3)NC(=O)[C@H](C)NC(=O)[C@H](C)NC(=O)[C@H](CCC(=O)O)NC(=O)[C@H](CC(=O)O)NC1=O)NC(=O)[C@H](CC(C)C)NC(=O)[C@H](CC(=O)O)NC2=O (stereo partly drawn) [I-717, Ac-PL3-Asp-Leu-B5-Asp-Glu-Ala-Ala-Phe-Asn-S8-3Thi-BztA-NH2]
38 (≈ 66.9 µg/mL)	7.09	–	7.09	2.765	CC(=O)N1CCC[C@]12CC=CCCCC1(CCCC=CCCCCCC[C@@](C)(C(=O)N[C@@H](Cc3ccsc3)C(=O)N[C@@H](Cc3csc4ccccc34)C(N)=O)NC(=O)[C@H](CC(N)=O)NC(=O)[C@H](Cc3ccccc3)NC(=O)[C@H](C)NC(=O)[C@H](C)NC(=O)[C@H](CCC(=O)O)NC(=O)[C@H](CC(=O)O)NC1=O)NC(=O)[C@H](CC(C)(C)C)NC(=O)[C@H](CC(=O)O)NC2=O (stereo partly drawn) [I-718, Ac-PL3-Asp-Npg-B5-Asp-Glu-Ala-Ala-Phe-Asn-S8-3Thi-BztA-NH2]
28 (≈ 49.3 µg/mL)	7.42	–	7.42	2.818	CC(=O)N1CCC[C@]12CC=CCCCC1(CCCC=CCCCCCC[C@@](C)(C(=O)N[C@@H](Cc3ccsc3)C(=O)N[C@@H](Cc3csc4ccccc34)C(N)=O)NC(=O)[C@H](CC(N)=O)NC(=O)[C@H](Cc3ccccc3)NC(=O)[C@H](C)NC(=O)[C@H](C)NC(=O)[C@H](CCC(=O)O)NC(=O)[C@H](CC(=O)O)NC1=O)NC(=O)[C@H](CC(C)(C)C)NC(=O)[C@H](CC(=O)O)NC2=O (stereo partly drawn) [I-719, Ac-PL3-Asp-Npg-B5-Asp-Glu-Ala-Ala-Phe-Asn-S8-3Thi-BztA-NH2]
33 (≈ 57.7 µg/mL)	7.12	–	7.12	2.665	CC[C@H](C)[C@@H]1NC(=O)[C@H](CC(=O)O)NC(=O)[C@]2(CC=CCCCC3(CCCC=CCCCCCC[C@@](C)(C(=O)N[C@@H](Cc4ccsc4)C(=O)N[C@@H](Cc4csc5ccccc45)C(N)=O)NC(=O)[C@H](CC(N)=O)NC(=O)[C@H](Cc4ccccc4)NC(=O)[C@H](C)NC(=O)[C@H](C)NC(=O)[C@H](CCC(=O)O)NC(=O)[C@H](CC(=O)O)NC3=O)NC1=O)CCCN2C(C)=O (stereo partly drawn) [I-720, Ac-PL3-Asp-Ile-B5-Asp-Glu-Ala-Ala-Phe-Asn-S8-3Thi-BztA-NH2]

More lines, now with the values behind:

Compound	Solubility [1] [µM]	pIC50 [2, 4]	chromatographic logD ([3]; pH 7.4, CHI Log D)	pIC50 ([2]; read-out: FP EC50)	CHI Log D [3]
CC[C@H](C)[C@@H]1NC(=O)[C@H](CC(=O)O)NC(=O)[C@]2(CC=CCCCC3(CCCC=CCCCCCC[C@@](C)(C(=O)N[C@@H](Cc4ccccc4)C(=O)N[C@@H](Cc4csc5ccccc45)C(=O)N[C@@H](CCC(N)=O)C(N)=O)NC(=O)[C@H](CCC(N)=O)NC(=O)[C@H](Cc4ccccc4)NC(=O)[C@H](C)NC(=O)[C@H](C)NC(=O)[C@H](CCC(=O)O)NC(=O)[C@H](CC(=O)O)NC3=O)NC1=O)CCCN2S(C)(=O)=O (stereo partly drawn) [I-710, MeSO2-PL3-Asp-Ile-B5-Asp-Glu-Ala-Ala-Phe-Gln-S8-Phe-BztA-Gln-NH2]	45 (≈ 86.4 µg/mL)	7.14	–	7.14	2.143
CC(=O)N1CCC[C@]12CC=CCCCC1(CCCC=CCCCCCC[C@@](C)(C(=O)N[C@@H](Cc3ccccc3)C(=O)N[C@@H](Cc3csc4ccccc34)C(N)=O)NC(=O)[C@H](CC(N)=O)NC(=O)[C@H](Cc3ccccc3)NC(=O)[C@H](C)NC(=O)[C@H](C)NC(=O)[C@H](CCC(=O)O)NC(=O)[C@H](CC(=O)O)NC1=O)NC(=O)[C@H](CC(C)(C)C)NC(=O)[C@H](CC(=O)O)NC2=O (stereo partly drawn) [I-712, Ac-PL3-Asp-Npg-B5-Asp-Glu-Ala-Ala-Phe-Asn-S8-Phe-BztA-NH2]	42 (≈ 73.7 µg/mL)	7.04	–	7.04	2.778
CC(=O)N1CCC[C@]12CC=CCCCC1(CCCC=CCCCCCC[C@@](C)(C(=O)N[C@@H](Cc3ccccc3)C(=O)N[C@@H](Cc3csc4ccccc34)C(N)=O)NC(=O)[C@H](CC(N)=O)NC(=O)[C@H](Cc3ccccc3)NC(=O)[C@H](C)NC(=O)[C@H](C)NC(=O)[C@H](CCC(=O)O)NC(=O)[C@H](CC(=O)O)NC1=O)NC(=O)[C@H](CC(C)(C)C)NC(=O)[C@H](CC(=O)O)NC2=O (stereo partly drawn) [I-713, Ac-PL3-Asp-Npg-B5-Asp-Glu-Ala-Ala-Phe-Asn-S8-Phe-BztA-NH2]	48 (≈ 84.2 µg/mL)	7.15	–	7.15	2.851
CC[C@H](C)[C@@H]1NC(=O)[C@H](CC(=O)O)NC(=O)[C@]2(CC=CCCCC3(CCCC=CCCCCCC[C@@](C)(C(=O)N[C@@H](Cc4ccccc4)C(=O)N[C@@H](Cc4csc5ccccc45)C(N)=O)NC(=O)[C@H](CC(N)=O)NC(=O)[C@H](Cc4ccccc4)NC(=O)[C@H](C)NC(=O)[C@H](C)NC(=O)[C@H](CCC(=O)O)NC(=O)[C@H](CC(=O)O)NC3=O)NC1=O)CCCN2C(C)=O (stereo partly drawn) [I-715, Ac-PL3-Asp-Ile-B5-Asp-Glu-Ala-Ala-Phe-Asn-S8-Phe-BztA-NH2]	25 (≈ 43.5 µg/mL)	7.22	–	7.22	2.762
CC(=O)N1CCC[C@]12CC=CCCCC1(CCCC=CCCCCCC[C@@](C)(C(=O)N[C@@H](Cc3ccsc3)C(=O)N[C@@H](Cc3csc4ccccc34)C(N)=O)NC(=O)[C@H](CC(N)=O)NC(=O)[C@H](Cc3ccccc3)NC(=O)[C@H](C)NC(=O)[C@H](C)NC(=O)[C@H](CCC(=O)O)NC(=O)[C@H](CC(=O)O)NC1=O)NC(=O)[C@H](CC(C)C)NC(=O)[C@H](CC(=O)O)NC2=O (stereo partly drawn) [I-716, Ac-PL3-Asp-Leu-B5-Asp-Glu-Ala-Ala-Phe-Asn-S8-3Thi-BztA-NH2]	50 (≈ 87.4 µg/mL)	7.04	–	7.04	2.622
